Laboratory results reported in patent publication US20200345725A1, “Methods and Compositions for Treating Cancer” (Omeros Corporation, priority 2019, published 2020).
Marks after values point to notes of the source that are not given here.

Experiments:
human PBMCs = test: Th1 cytokines in supernatants of stimulated human PBMC, GPR174 inhibitor with adenosine pathway inhibitors (Examples 15, 18-22); type: cell-based; conditions: donor 7
Outline: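 Human donor PBMCs (1×10^6 cells/well) were stimulated with 1 µg/mL anti-CD3 (UCHT1) plus 0.1 µg/mL anti-CD28 (CD28.2) for 24 h with test agents. IFN-γ, IL-2, TNF and GM-CSF in supernatants were measured by ELISA, Legendplex or MSD. Fold changes were compared by one-way ANOVA with Tukey correction.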

mouse splenocytes = test: IL-2 levels in supernatants of cultured mouse splenocytes (WT or GPR174-KO) stimulated with anti-CD3 and anti-CD28, MSD platform; type: cell-based; conditions: GPR174-KO splenocytes, NECA 0.1 μM, 2 days; compounds 10, 6 0.3 μM, ZM-241385 0.2 μM; FIG. 70B
Protocol: To make single cell suspensions from mouse splenocytes, spleens were cut into 1-2 mm^3 pieces with a razor blade and incubated at 37° C. with 10 μg/mL DNase and 1 mg/mL Collagenase D with agitation for 90 min. Spleen fragments and cells were then pressed through a nylon screen, and the resulting cell suspension was washed. In 96-well flat-bottom plates, splenocytes were cultured in quadruplicate with the following conditions for 2 days, after which supernatants were tested for cytokine levels with the MSD platform.
Anti-CD3 (clone 2C11; 0.1 μg/mL)
GPR174 inhibitor (compound 10, 1 μM or 0.3 μM, or DMSO vehicle control)
GPR174 inhibitor (compound 6, 0.3 μM, or DMSO vehicle control)
Adenosine receptor agonist (NECA, 0.1 μM)

[1] = high and low concentrations, ZM 0.1 μM
[2] = no ZM, 0.3 μM (compound 20: 3 μM)
[3] = no ZM, 1 μM (compound 20: 10 μM)
[4] = with ZM-241385 0.1 μM, 0.3 μM (compound 20: 3 μM)
[5] = with ZM-241385 0.1 μM, 1 μM (compound 20: 10 μM), label ZM = ZM alone

For O=C(c1ccccc1)N1CCN(c2cc(N3CCCCC3)c(F)cc2[N+](=O)[O-])CC1 [compound 6], which “synergy with ZM on GM-CSF (greater than the sum of the increases with each inhibitor alone)” value (human PBMCs; [1]) is on record?
The value was “synergized with ZM”.

What about the “synergy with ZM on IFN-γ (greater than the sum of the increases with each inhibitor alone)” value (human PBMCs; [1]) of the same molecule?
The value was “synergized with ZM”.

What about the “synergy with ZM on IL-2 (greater than the sum of the increases with each inhibitor alone)” value (human PBMCs; [1]) of the same molecule?
Its value is “synergized with ZM”.

What about the “synergy with ZM on TNF (greater than the sum of the increases with each inhibitor alone)” value (human PBMCs; [1]) of the same molecule?
Its value is “synergized with ZM”.

And the “GM-CSF, ratio relative to vehicle control” value (human PBMCs; [2])?
The value was 3.9*.

What about the “IFN-γ, ratio relative to vehicle control” value (human PBMCs; [2]) of the same molecule?
The value was 2.0*.

What about the “IL-2, ratio relative to vehicle control” value (human PBMCs; [2]) of the same molecule?
The value was 1.5*.

What about the “TNF, ratio relative to vehicle control” value (human PBMCs; [2]) of the same molecule?
Its value is 2.1*.

And the “GM-CSF, ratio relative to vehicle control” value (human PBMCs; [3])?
The value was 2.9*.

What about the “IFN-γ, ratio relative to vehicle control” value (human PBMCs; [3]) of the same molecule?
Its value is 1.9*.

What about the “IL-2, ratio relative to vehicle control” value (human PBMCs; [3]) of the same molecule?
Its value is 1.5*.

What about the “TNF, ratio relative to vehicle control” value (human PBMCs; [3]) of the same molecule?
The value was 2.1*.

And the “GM-CSF, ratio relative to vehicle control” value (human PBMCs; [4])?
The value was 6.2*.

And the “IFN-γ, ratio relative to vehicle control” value (human PBMCs; [4])?
Its value is 3.1*.

And the “IL-2, ratio relative to vehicle control” value (human PBMCs; [4])?
The value was 1.9*.

And the “TNF, ratio relative to vehicle control” value (human PBMCs; [4])?
Its value is 3.4*.

And the “GM-CSF, ratio relative to vehicle control” value (human PBMCs; [5])?
Its value is 6.0*.

What about the “IFN-γ, ratio relative to vehicle control” value (human PBMCs; [5]) of the same molecule?
Its value is 3.8*.

What about the “IL-2, ratio relative to vehicle control” value (human PBMCs; [5]) of the same molecule?
Its value is 2.1*.

And the “TNF, ratio relative to vehicle control” value (human PBMCs; [5])?
The value was 4.0*.

What about the “increase of IL-2 levels” value (mouse splenocytes) of the same molecule?
Its value is “modest off-target activity”.
